Tests used:
[1] = tested on: human serum proteins; conditions: cited from earlier work
[2] = tested on: rat serum proteins; conditions: cited from earlier work
[3] = tested on: rat middle cerebral artery occlusion; assay: Dose response test with rat (middle cerebral artery occlusion/reperfusion, infarct); type: in vivo, Crj:CD(SD) male rats
Procedure: Seven weeks to eight weeks old Crj:CD(SD) male rats (190 to 250 g) were subjected to anesthesia with isoflurane, and were fixed in a dorsal position with their body temperature kept at around 37° C. A catheter for drug administration was placed in the cervical vein. The right common carotid artery, external carotid artery and internal carotid artery were exposed and the common carotid artery and external carotid artery were ligated in order to occlude the middle cerebral artery. From the branch of the external carotid artery and the internal carotid artery, a silicone-coated No. 4 nylon suture (plug) was inserted to occlude the middle cerebral artery. Two hours after occlusion of the middle cerebral artery, the plug was taken out and perfusion of the middle cerebral artery was resumed, and then the administration was started as in Table 5. Decapitation and surgical removal of the brain were performed 24 hours after reperfusion. Five brain sections each having a thickness of 2 mm (from the bregma part, from 2 mm before and behind parts of the bregma, and from 4 mm before and behind parts of the bregma) were prepared. The brain sections were stained with 1 w/v % 2,3,5-triphenyltetrazolium chloride, and the infarct area was measured to calculate the infarct volume. […]

[4] = tested on: rat middle cerebral artery occlusion and reperfusion model; assay: Cerebral edema in rat middle cerebral artery occlusion and reperfusion model; type: in vivo, Wistar rats
Procedure: After eight weeks to nine weeks old Wistar rats (220 to 260 g) were subjected to inhalation anesthesia with halothane, the inhalation anesthesia with 1% halothane (anesthesia; nitrous oxide: oxygen=7:3) was continued while fixing them in a dorsal position and maintaining their body temperature at around 37° C. In an infusion administration group and a bolus+infusion administration group, a catheter was placed in the femora vein. The right common carotid artery, external carotid artery and internal carotid artery were exposed and the common carotid artery and external carotid artery were ligated in order to occlude the middle cerebral artery. From the common carotid artery, a No. 4 nylon suture (plug) was inserted to occlude the middle cerebral artery. Three hours after occlusion of the middle cerebral artery, the plug was taken out from the common carotid artery and perfusion of the middle cerebral artery was resumed, and then the administration was started as in Table 3. Decapitation and surgical removal of the brain were performed three hours after reperfusion. After separation of the right and left cerebral cortex, the wet weight was measured. After drying at 130° C. for 24 hours, the dry weight was determined. A percentage water content was calculated in accordance with the following equation: (wet weight (g)−dry weight (g))/wet weight (g)×100. The constitution and dose of each group are shown below in Table 3. It is to be noted that to the drug administered groups other than the control group, Edaravone was administered as a drug in accordance with Table 3.

[5] = tested on: monkey middle cerebral artery occlusion; assay: Dose response test with monkey (middle cerebral artery occlusion, infarct); type: in vivo, croo monkey; conditions: Edaravone administered groups (0.1-0.4 mg/kg loading + 0.5-2.0 mg/kg/hr maintenance i.v.), 28 hours after occlusion
Procedure: A croo monkey (3 years to 5 years old) was subjected to […], and then its body temperature was kept at around 37° C. The middle cerebral artery at around the branch of the left internal carotid artery was exposed, and the middle cerebral artery was occluded by electrocoagulation. Then, the administration was started as in Table 6. 28 hours after occlusion (just after administration), the whole brain was removed under deep anesthesia by excess pentobarbital administration, and coronary brain sections each having a thickness of 4 mm were cut out of the forehead. The brain sections were stained with 1 w/v % 2,3,5-triphenyltetrazolium chloride, and the infarct area was measured to calculate the infarct volume.
In the drug administered groups other than the solvent group, Edaravone was used as the drug and this was administered as in Table 6.

## CC1=NN(c2ccccc2)C(=O)C1 [Edaravone, 1-phenyl-3-methyl-2-pyrazolin-5-one]
[1]
  binding ratio with serum proteins: 91.9%
[2]
  binding ratio with serum proteins: 85.8%
[3]; 0.1 mg/kg+0.5 mg/kg/hr i.v., P<0.05 vs physiological saline
  infarct area: significantly decreased
[3]; Edaravone administered groups (0.05-0.2 mg/kg loading + 0.25-1.0 mg/kg/hr maintenance i.v.), 24 hours after reperfusion
  infarct volume compared with control group: small
[4]; bolus group, 3 mg/kg i.v. immediately after reperfusion, brain removed 3 h after reperfusion
  increase in percentage water content of cortex: almost equal
[4]; bolus+infusion group, 0.2 mg/kg i.v. + 1 mg/kg/hr i.v. for 2.75 hours
  increase in percentage water content of cortex: lowest
[4]; infusion group, 1 mg/kg/hr i.v. for 3 hours after reperfusion
  increase in percentage water content of cortex: almost equal
[5]
  infarct volume compared with control group: small
